# Laboratory results reported in patent US4068070A, “α-Cyanoamine compounds and a process for producing the same” (Fuji Chemical Industry Co., Ltd., priority 1974, dated 1978).
# Tests used:
# Format in all cases: in vivo, mongrel adult dogs
# aortic blood flow = test: Effects on aortic blood flow
# Experimental: (§1) All experiments were made on male and female thoractomized mongrel adult dogs weighing about 10 kg. under anesthesia with pentobarbital sodium. Compounds A, D, E and F were suspended in 0.2% CMC solution, Compound B dissolved in hydrochloric acid solution (pH 6), and Compound C and active placebo being dissolved in physiological saline solution. Animals were administered the drug intravenously on brachiuma with either test compound or active placebo.
# (§2) Arterial blood pressure was measured by pressure transducer (Nippon Koden MPU-0.5) connected with the cannula inserted from exposed carotid artery into aorta. Aortic blood flow was determined by means of electromagnetic flow meter (Nippon Koden MF-5) mounted at the origin of the aorta. Coronary sinus out flow and coronary sinus oxygen tension were assessed by means of electromagnetic flow meter (Nippon Koden MF-5) and P02 macro electrode (Beokmann Moder 160-C), respectively using Morawitz cannulization technique. Heart rate was measured by cardiotachometer (Nippon Koden RT-2) synchronized with systolic blood pressure of aorta.
# [1] = test system: coronary sinus oxygen tension; test: Effects on coronary sinus oxygen tension
# Experimental: as §1, §2
# [2] = test system: arterial mean blood pressure; test: Effects on arterial mean blood pressure
# Experimental: as §1, §2
# coronary sinus out flow = test: Effects on coronary sinus out flow
# Experimental: as §1, §2
# heart rate = test: Effects on heart rate
# Experimental: as §1, §2
smiles,measurement,setting,value
COc1ccc(C(C#N)N2CCN(CC(=O)N3CCCC3)CC2)cc1OC (centres unmarked) [Compound C],"Changes (%) of basal values, aortic blood flow","aortic blood flow; 2.0 mg/kg i.v., 1 min",+2.3%
same,"Changes (%) of basal values, aortic blood flow","aortic blood flow; 2.0 mg/kg i.v., 5 min",+0.7%
same,"Changes (%) of basal values, aortic blood flow","aortic blood flow; 2.0 mg/kg i.v., 10 min",-1.5%
same,"Changes (%) of basal values, aortic blood flow","aortic blood flow; 2.0 mg/kg i.v., 20 min",-0.3%
same,"Changes (%) of basal values, aortic blood flow","aortic blood flow; 2.0 mg/kg i.v., 30 min",-0.1%
same,"Changes (%) of basal values, aortic blood flow","aortic blood flow; 2.0 mg/kg i.v., 40 min",0%
same,"Changes (%) of basal values, aortic blood flow","aortic blood flow; 2.0 mg/kg i.v., imm.",+1.1%
same,"Changes (%) of basal values, aortic blood flow","aortic blood flow; 6.0 mg/kg i.v., 1 min",+3.4%
same,"Changes (%) of basal values, aortic blood flow","aortic blood flow; 6.0 mg/kg i.v., 5 min",+1.1%
same,"Changes (%) of basal values, aortic blood flow","aortic blood flow; 6.0 mg/kg i.v., 10 min",0%
same,"Changes (%) of basal values, aortic blood flow","aortic blood flow; 6.0 mg/kg i.v., 20 min",-1.0%
same,"Changes (%) of basal values, aortic blood flow","aortic blood flow; 6.0 mg/kg i.v., 30 min",-2.0%
same,"Changes (%) of basal values, aortic blood flow","aortic blood flow; 6.0 mg/kg i.v., 40 min",-1.1%
same,"Changes (%) of basal values, aortic blood flow","aortic blood flow; 6.0 mg/kg i.v., imm.",+8.5%
same,"Changes (%) of basal values, aortic blood flow","aortic blood flow; 20.0 mg/kg i.v., 1 min",+6.2%
same,"Changes (%) of basal values, aortic blood flow","aortic blood flow; 20.0 mg/kg i.v., 5 min",+4.8%
same,"Changes (%) of basal values, aortic blood flow","aortic blood flow; 20.0 mg/kg i.v., 10 min",+1.3%
same,"Changes (%) of basal values, aortic blood flow","aortic blood flow; 20.0 mg/kg i.v., 20 min",-7.1%
same,"Changes (%) of basal values, aortic blood flow","aortic blood flow; 20.0 mg/kg i.v., 30 min",-11.9%
same,"Changes (%) of basal values, aortic blood flow","aortic blood flow; 20.0 mg/kg i.v., 40 min",-8.3%
same,"Changes (%) of basal values, aortic blood flow","aortic blood flow; 20.0 mg/kg i.v., imm.",+15.8%
same,Effects on aortic blood flow (in words),"aortic blood flow; i.v., anesthetized dogs","an increase in blood flow immediately after administration, followed by a decrease in blood flow"
same,"Changes(%) of basal values, coronary sinus oxygen tension","[1]; 2.0 mg/kg i.v., 1 min",+5.4%
same,"Changes(%) of basal values, coronary sinus oxygen tension","[1]; 2.0 mg/kg i.v., 5 min",+2.8%
same,"Changes(%) of basal values, coronary sinus oxygen tension","[1]; 2.0 mg/kg i.v., 10 min",+2.0%
same,"Changes(%) of basal values, coronary sinus oxygen tension","[1]; 2.0 mg/kg i.v., 20 min",+1.1%
same,"Changes(%) of basal values, coronary sinus oxygen tension","[1]; 2.0 mg/kg i.v., 30 min",0%
same,"Changes(%) of basal values, coronary sinus oxygen tension","[1]; 2.0 mg/kg i.v., 40 min",0%
same,"Changes(%) of basal values, coronary sinus oxygen tension","[1]; 2.0 mg/kg i.v., imm.",+12.1%
same,"Changes(%) of basal values, coronary sinus oxygen tension","[1]; 6.0 mg/kg i.v., 1 min",+29.2%
same,"Changes(%) of basal values, coronary sinus oxygen tension","[1]; 6.0 mg/kg i.v., 5 min",+22.3%
same,"Changes(%) of basal values, coronary sinus oxygen tension","[1]; 6.0 mg/kg i.v., 10 min",+19.8%
same,"Changes(%) of basal values, coronary sinus oxygen tension","[1]; 6.0 mg/kg i.v., 20 min",+15.0%
same,"Changes(%) of basal values, coronary sinus oxygen tension","[1]; 6.0 mg/kg i.v., 30 min",+14.3%
same,"Changes(%) of basal values, coronary sinus oxygen tension","[1]; 6.0 mg/kg i.v., 40 min",+12.0%
same,"Changes(%) of basal values, coronary sinus oxygen tension","[1]; 6.0 mg/kg i.v., imm.",+36.9%
same,"Changes(%) of basal values, coronary sinus oxygen tension","[1]; 20.0 mg/kg i.v., 1 min",+96.2%
same,"Changes(%) of basal values, coronary sinus oxygen tension","[1]; 20.0 mg/kg i.v., 5 min",+86.7%
same,"Changes(%) of basal values, coronary sinus oxygen tension","[1]; 20.0 mg/kg i.v., 10 min",+70.4%
same,"Changes(%) of basal values, coronary sinus oxygen tension","[1]; 20.0 mg/kg i.v., 20 min",+63.7%
same,"Changes(%) of basal values, coronary sinus oxygen tension","[1]; 20.0 mg/kg i.v., 30 min",+60.9%
same,"Changes(%) of basal values, coronary sinus oxygen tension","[1]; 20.0 mg/kg i.v., 40 min",+51.5%
same,"Changes(%) of basal values, coronary sinus oxygen tension","[1]; 20.0 mg/kg i.v., imm.",+79.1%
same,Effects on coronary sinus oxygen tension (in words),"[1]; i.v., anesthetized dogs","a significant increase in coronary sinus oxygen tension, effect of which was of long duration"
same,"Changes (%) of basal values, arterial mean blood pressure","[2]; 2.0 mg/kg i.v., 1 min",+0.8%
same,"Changes (%) of basal values, arterial mean blood pressure","[2]; 2.0 mg/kg i.v., 5 min",0%
same,"Changes (%) of basal values, arterial mean blood pressure","[2]; 2.0 mg/kg i.v., 10 min",0%
same,"Changes (%) of basal values, arterial mean blood pressure","[2]; 2.0 mg/kg i.v., 20 min",0%
same,"Changes (%) of basal values, arterial mean blood pressure","[2]; 2.0 mg/kg i.v., 30 min",0%
same,"Changes (%) of basal values, arterial mean blood pressure","[2]; 2.0 mg/kg i.v., 40 min",0%
same,"Changes (%) of basal values, arterial mean blood pressure","[2]; 2.0 mg/kg i.v., imm.",-4.2%
same,"Changes (%) of basal values, arterial mean blood pressure","[2]; 6.0 mg/kg i.v., 1 min",-3.9%
same,"Changes (%) of basal values, arterial mean blood pressure","[2]; 6.0 mg/kg i.v., 5 min",-1.6%
same,"Changes (%) of basal values, arterial mean blood pressure","[2]; 6.0 mg/kg i.v., 10 min",-0.7%
same,"Changes (%) of basal values, arterial mean blood pressure","[2]; 6.0 mg/kg i.v., 20 min",-3.6%
same,"Changes (%) of basal values, arterial mean blood pressure","[2]; 6.0 mg/kg i.v., 30 min",-2.5%
same,"Changes (%) of basal values, arterial mean blood pressure","[2]; 6.0 mg/kg i.v., 40 min",-1.3%
same,"Changes (%) of basal values, arterial mean blood pressure","[2]; 6.0 mg/kg i.v., imm.",-12.1%
same,"Changes (%) of basal values, arterial mean blood pressure","[2]; 20.0 mg/kg i.v., 1 min",-17.1%
same,"Changes (%) of basal values, arterial mean blood pressure","[2]; 20.0 mg/kg i.v., 5 min",-18.8%
same,"Changes (%) of basal values, arterial mean blood pressure","[2]; 20.0 mg/kg i.v., 10 min",-22.2%
same,"Changes (%) of basal values, arterial mean blood pressure","[2]; 20.0 mg/kg i.v., 20 min",-27.2%
same,"Changes (%) of basal values, arterial mean blood pressure","[2]; 20.0 mg/kg i.v., 30 min",-28.0%
same,"Changes (%) of basal values, arterial mean blood pressure","[2]; 20.0 mg/kg i.v., 40 min",-26.1%
same,"Changes (%) of basal values, arterial mean blood pressure","[2]; 20.0 mg/kg i.v., imm.",-29.0%
same,Effects on arterial mean blood pressure (in words),"[2]; i.v., anesthetized dogs",hypotensive effects being proportioned to their doses which were of long duration
same,"Changes(%) of basal values, coronary sinus out flow","coronary sinus out flow; 2.0 mg/kg i.v., 1 min",+4.7%
same,"Changes(%) of basal values, coronary sinus out flow","coronary sinus out flow; 2.0 mg/kg i.v., 5 min",+4.9%
same,"Changes(%) of basal values, coronary sinus out flow","coronary sinus out flow; 2.0 mg/kg i.v., 10 min",+3.2%
same,"Changes(%) of basal values, coronary sinus out flow","coronary sinus out flow; 2.0 mg/kg i.v., 20 min",+2.1%
same,"Changes(%) of basal values, coronary sinus out flow","coronary sinus out flow; 2.0 mg/kg i.v., 30 min",+1.6%
same,"Changes(%) of basal values, coronary sinus out flow","coronary sinus out flow; 2.0 mg/kg i.v., 40 min",+1.1%
same,"Changes(%) of basal values, coronary sinus out flow","coronary sinus out flow; 2.0 mg/kg i.v., imm.",+17.8%
same,"Changes(%) of basal values, coronary sinus out flow","coronary sinus out flow; 6.0 mg/kg i.v., 1 min",+50.7%
same,"Changes(%) of basal values, coronary sinus out flow","coronary sinus out flow; 6.0 mg/kg i.v., 5 min",+28.6%
same,"Changes(%) of basal values, coronary sinus out flow","coronary sinus out flow; 6.0 mg/kg i.v., 10 min",+19.4%
same,"Changes(%) of basal values, coronary sinus out flow","coronary sinus out flow; 6.0 mg/kg i.v., 20 min",+18.2%
same,"Changes(%) of basal values, coronary sinus out flow","coronary sinus out flow; 6.0 mg/kg i.v., 30 min",+14.3%
same,"Changes(%) of basal values, coronary sinus out flow","coronary sinus out flow; 6.0 mg/kg i.v., 40 min",+7.6%
same,"Changes(%) of basal values, coronary sinus out flow","coronary sinus out flow; 6.0 mg/kg i.v., imm.",+58.2%
same,"Changes(%) of basal values, coronary sinus out flow","coronary sinus out flow; 20.0 mg/kg i.v., 1 min",+103.2%
same,"Changes(%) of basal values, coronary sinus out flow","coronary sinus out flow; 20.0 mg/kg i.v., 5 min",+92.1%
same,"Changes(%) of basal values, coronary sinus out flow","coronary sinus out flow; 20.0 mg/kg i.v., 10 min",+80.8%
same,"Changes(%) of basal values, coronary sinus out flow","coronary sinus out flow; 20.0 mg/kg i.v., 20 min",+56.2%
same,"Changes(%) of basal values, coronary sinus out flow","coronary sinus out flow; 20.0 mg/kg i.v., 30 min",+36.2%
same,"Changes(%) of basal values, coronary sinus out flow","coronary sinus out flow; 20.0 mg/kg i.v., 40 min",+30.0%
same,"Changes(%) of basal values, coronary sinus out flow","coronary sinus out flow; 20.0 mg/kg i.v., imm.",+101.9%
same,Effects on coronary sinus out flow (in words),"coronary sinus out flow; i.v., anesthetized dogs","a marked increasing effect on coronary sinus out flow, which was proportioned to doses thereof and of long duration"
same,"Changes(%) of basal values, heart rate","heart rate; 2.0 mg/kg i.v., 1 min",+1.1%
same,"Changes(%) of basal values, heart rate","heart rate; 2.0 mg/kg i.v., 5 min",+0.3%
same,"Changes(%) of basal values, heart rate","heart rate; 2.0 mg/kg i.v., 10 min",-0.2%
same,"Changes(%) of basal values, heart rate","heart rate; 2.0 mg/kg i.v., 20 min",0%
same,"Changes(%) of basal values, heart rate","heart rate; 2.0 mg/kg i.v., 30 min",0%
same,"Changes(%) of basal values, heart rate","heart rate; 2.0 mg/kg i.v., 40 min",0%
same,"Changes(%) of basal values, heart rate","heart rate; 2.0 mg/kg i.v., imm.",-2.8%
same,"Changes(%) of basal values, heart rate","heart rate; 6.0 mg/kg i.v., 1 min",+5.1%
same,"Changes(%) of basal values, heart rate","heart rate; 6.0 mg/kg i.v., 5 min",+1.3%
same,"Changes(%) of basal values, heart rate","heart rate; 6.0 mg/kg i.v., 10 min",-0.3%
same,"Changes(%) of basal values, heart rate","heart rate; 6.0 mg/kg i.v., 20 min",-1.0%
same,"Changes(%) of basal values, heart rate","heart rate; 6.0 mg/kg i.v., 30 min",0%
same,"Changes(%) of basal values, heart rate","heart rate; 6.0 mg/kg i.v., 40 min",0%
same,"Changes(%) of basal values, heart rate","heart rate; 6.0 mg/kg i.v., imm.",-5.3%
same,"Changes(%) of basal values, heart rate","heart rate; 20.0 mg/kg i.v., 1 min",+0.8%
same,"Changes(%) of basal values, heart rate","heart rate; 20.0 mg/kg i.v., 5 min",+1.6%
same,"Changes(%) of basal values, heart rate","heart rate; 20.0 mg/kg i.v., 10 min",-1.0%
same,"Changes(%) of basal values, heart rate","heart rate; 20.0 mg/kg i.v., 20 min",-1.4%
same,"Changes(%) of basal values, heart rate","heart rate; 20.0 mg/kg i.v., 30 min",-28%
same,"Changes(%) of basal values, heart rate","heart rate; 20.0 mg/kg i.v., 40 min",-2.0%
same,"Changes(%) of basal values, heart rate","heart rate; 20.0 mg/kg i.v., imm.",-25.6%
same,Effects on heart rate (in words),"heart rate; i.v., anesthetized dogs",a slight negative chronotropic effect
